Literature values, collected in patent publication US20090239878A1, “COMBINATIONS OF (A) AN ATP-COMPETITIVE INHIBITOR OF C-ABL KINASE ACTIVITY WITH (B) TWO OR MORE OTHER ANTINEOPLASTIC AGENTS” (priority 2002, published 2009).

What was measured:
[1] = tested on: CEM/ara-C/I monoclonal clone; conditions: ara-C resistant cell line versus CEM/0
[2] = tested on: platelet-derived growth factor receptor; conditions: preclinical studies
[3] = target: c-kit receptor (Homo sapiens, UniProt P10721); conditions: preclinical studies
c-kit receptor, sequence (P10721 26-976): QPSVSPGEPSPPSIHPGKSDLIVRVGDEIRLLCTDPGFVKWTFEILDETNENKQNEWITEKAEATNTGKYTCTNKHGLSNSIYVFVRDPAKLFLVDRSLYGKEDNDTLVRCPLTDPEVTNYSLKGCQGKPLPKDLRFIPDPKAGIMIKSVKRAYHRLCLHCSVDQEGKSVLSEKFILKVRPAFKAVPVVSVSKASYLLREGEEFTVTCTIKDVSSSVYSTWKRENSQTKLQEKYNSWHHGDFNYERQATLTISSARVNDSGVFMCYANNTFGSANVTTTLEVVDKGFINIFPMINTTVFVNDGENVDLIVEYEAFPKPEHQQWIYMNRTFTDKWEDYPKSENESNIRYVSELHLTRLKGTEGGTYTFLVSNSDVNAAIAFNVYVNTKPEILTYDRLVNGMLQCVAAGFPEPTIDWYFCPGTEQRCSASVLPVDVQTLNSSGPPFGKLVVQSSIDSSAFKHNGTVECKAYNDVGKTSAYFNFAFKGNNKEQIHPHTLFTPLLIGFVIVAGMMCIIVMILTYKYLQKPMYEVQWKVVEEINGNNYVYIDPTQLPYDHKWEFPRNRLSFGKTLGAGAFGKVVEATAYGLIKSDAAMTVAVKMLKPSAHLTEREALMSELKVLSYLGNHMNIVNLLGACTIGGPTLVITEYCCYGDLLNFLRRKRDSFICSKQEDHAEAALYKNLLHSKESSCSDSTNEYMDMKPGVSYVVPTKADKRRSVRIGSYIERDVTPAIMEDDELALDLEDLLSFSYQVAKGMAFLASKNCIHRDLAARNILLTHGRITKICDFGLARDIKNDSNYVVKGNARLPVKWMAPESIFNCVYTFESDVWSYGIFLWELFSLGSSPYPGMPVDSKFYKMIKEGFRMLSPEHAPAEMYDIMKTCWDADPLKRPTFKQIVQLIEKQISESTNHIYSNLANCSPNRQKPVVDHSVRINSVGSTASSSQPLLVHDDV

inhibition of kinase activity [3] | Molecule | sensitivity to ara-C relative to wild type [1] | inhibition of kinase activity [2]
 | Nc1ccn([C@@H]2O[C@H](CO)[C@@H](O)[C@@H]2O)c(=O)n1 [ara-C, cytosine arabinoside] | less than 1 % of the wild type CEM/0 cell line | 
inhibits the kinase activities | N-{5-[4-(4-methyl-piperazino-methyl)-benzoylamido]-2-methylphenyl}-4-(3-pyridyl)-2-pyrimidine-amine [STI571] |  | inhibits the kinase activities
